Measured values reported in patent US8686059B2, “Base and radical generator, composition using same and method for curing same” (Three Bond Co., Ltd., priority 2009, dated 2014).

Key:
[1] = Confirmation of photobase generation: pH of aqueous solution before and after 365-nm irradiation; type: physicochemical; conditions: 1.00 g/L aqueous solution
Procedure: An aqueous solution having a concentration of 1.00 g/L was prepared from the aminimide compound A and pure water, and 50 ml of this was put into a transparent glass-made sample bottle having an inner diameter of 38 mm and a height of 58 mm, and with stirring with a stirrer while sealed up, the pH of the aqueous solution was measured with a pH meter, Horiba Seisakusho's D54. Further kept sealed up, the sample bottle was irradiated with 365-nm active energy rays on the side thereof at a lighting intensity of 100 mW/cm^2, using a spot UV irradiator, Hamamatsu Photonics' LC8, and the pH of the solution was measured after irradiation for specified seconds. The pH before irradiation with active energy rays was 6.28; and the pH after irradiation with active energy rays for 20 seconds was 9.78; the pH after irradiation for 30 seconds was 9.90; and the pH after irradiation for 50 seconds was 10.01.

| pH before irradiation with active energy rays [1] | pH after irradiation with active energy rays for 20 seconds ([1]; 365 nm, 100 mW/cm^2, 20 seconds) | pH after irradiation for 30 seconds ([1]; 365 nm, 100 mW/cm^2, 30 seconds) | pH after irradiation for 50 seconds ([1]; 365 nm, 100 mW/cm^2, 50 seconds) | melting point | SMILES |
| --- | --- | --- | --- | --- | --- |
| 6.28 | 9.78 | 9.90 | 10.01 | – | CC(O)C[N+](C)(C)[N-]C(=O)C(=O)c1ccccc1 (stereo not drawn) [Aminimide Compound A] |
| – | – | – | – | 100 to 101 °C (dec.) | CC(=O)OC(C)C[N+](C)(C)[N-]C(=O)C(=O)c1ccccc1 (stereo not drawn) [Aminimide Compound D] |
| – | – | – | – | 102 to 103 °C (dec.) | COc1ccc(C(=O)C(=O)[N-][N+](C)(C)CC(C)O)cc1 (stereo not drawn) [Aminimide Compound B] |
